The values below come from patent publication EP0325279A1, “Dehydrocholecalciferol derivatives” (F. HOFFMANN-LA ROCHE AG, priority 1988, dated 1989).

Type in all cases: cell-based
Assay [1] concerns gezüchteten menschlichen Keratinocyten. In words: Morphological differentiation of cultured human keratinocytes (cell counts by cell type).
For assay [2], the system named is menschlicher promyelocytischer Tumorzellen HL-60. The experiment in a line: Antiproliferative (AP) effect on HL-60 cells. Conditions: for IC50: Homo sapiens, concentration that reduces the cell number by 50%, read-out: ID50 (the source's name). An excerpt:
(§1) Zum Nachweis der Aktivität der Verbindungen der Formel I als Mittel zur Behandlung von neoplastischen Krankheiten wurden die antiproliferativen (AP) und die Differenzierung induzierenden Effekte (DI) der Verbindungen A bis F sowie die Anzahl menschlicher promyelocytischer Tumorzellen HL-60 ermittelt. In Tabelle 6 ist der AP Effekt als prozentuale Reduktion der Anzahl Zellen und als Konzentration ID₅₀, die die Zellenanzahl um 50% reduziert, angegeben. Der DI Effekt ist angegeben als Prozentsatz der differenzierten Zellen und als Konzentration ED₅₀ der Verbindungen, die eine 50%ige Differenzierung der Zellen bewirkt.

Assay [3] shares this test system. The experiment in a line: Differentiation-inducing (DI) effect on HL-60 cells. Conditions: for EC50: Homo sapiens, concentration that causes 50% differentiation of the cells, read-out: ED50 (the source's name).
Source text: as §1

The mark [4] stands for this setting: Konzentration 0.1 (head prints x10 M).
Where [5] appears, read: Konzentration 1 (head prints x10 M).
Setting [6] is: Konzentration 10 (head prints x10 M).
[7] abbreviates: Konzentration 100 (head prints x10 M).
Where [8] appears, read: Konzentration 1000 (head prints x10 M).
Setting [9] is: Konzentration 0.01 (head prints x10 M).

Values joined by “and” are separate entries in the source; they are usually repeats but may differ in a detail not shown here. Identical values can stand only once.

`C=C1CC[C@H](O)C/C1=C/C=C1\CCC[C@]2(C)C([C@H](C)CCCC(C)(C)O)=CC[C@@H]12` [Verbindung B, 25-Hydroxy-16-dehydrocholecalciferol]: the “Anzahl Zellen (x10⁴): Basalzellen” value came out at 15±5 x10⁴ in assay [1] (Dosis 10⁻¹⁰ M), 74±3 x10⁴ in assay [1] (Dosis 10⁻⁶ M) and 109±2 x10⁴ in assay [1] (Dosis 10⁻⁸ M). Further, the figures for the “Anzahl Zellen (x10⁴): Gesamtanzahl” value in assay [1] (Dosis 10⁻¹⁰ M), in assay [1] (Dosis 10⁻⁶ M) and in assay [1] (Dosis 10⁻⁸ M) were 133±6 x10⁴, 104±4 x10⁴ and 131±4 x10⁴, respectively. Also, the figures for the “Anzahl Zellen (x10⁴): Plattenepithelzellen” value in assay [1] (Dosis 10⁻¹⁰ M), in assay [1] (Dosis 10⁻⁶ M) and in assay [1] (Dosis 10⁻⁸ M) were 18±1 x10⁴, 30±1 x10⁴ and 22±2 x10⁴, respectively. Further, the “Anzahl Zellen (x10⁴): verhornte Plattenepithelzellen” value amounted to 25±1 x10⁴ in assay [1] (Dosis 10⁻¹⁰ M), 33±1 x10⁴ in assay [1] (Dosis 10⁻⁶ M) and 29±2 x10⁴ in assay [1] (Dosis 10⁻⁸ M). Also, the IC50 in assay [2] came to 0.35 µM. Besides, the “% Reduktion der Anzahl Zellen” value was 10% in assay [2] (setting [4]); 8% in assay [2] (setting [5]); 14% in assay [2] (setting [6]); 82% in assay [2] (setting [7]); 95% in assay [2] (setting [8]). The EC50 in assay [3] was 0.32 µM. In addition, the “Differenzierte Zellen (%)” value in assay [3] (setting [4]) came to 5%; in assay [3] (setting [5]), 4%; in assay [3] (setting [6]), 6%; in assay [3] (setting [7]), 93%; in assay [3] (setting [8]) it was 95%.
On to `C=C1/C(=C\C=C2/CCC[C@]3(C)C([C@H](C)C/C=C/C(C)(C)O)=CC[C@@H]23)C[C@@H](O)C[C@@H]1O` [Verbindung C, 1,25-Dihydroxy-16,23E-bisdehydrocholecalciferol], for which the “Anzahl Zellen (x10⁴): Basalzellen” value in assay [1] (Dosis 10⁻¹⁰ M) is 92±2 x10⁴; in assay [1] (Dosis 10⁻⁶ M), 54±6 x10⁴; in assay [1] (Dosis 10⁻⁸ M), 80±2 x10⁴. In addition, the “Anzahl Zellen (x10⁴): Gesamtanzahl” value was found to be 117±4 x10⁴ in assay [1] (Dosis 10⁻¹⁰ M), 80±7 x10⁴ in assay [1] (Dosis 10⁻⁶ M) and 108±3 x10⁴ in assay [1] (Dosis 10⁻⁸ M). Moreover, the “Anzahl Zellen (x10⁴): Plattenepithelzellen” value amounted to 25±2 x10⁴ in assay [1] (Dosis 10⁻¹⁰ M), 26±1 x10⁴ in assay [1] (Dosis 10⁻⁶ M) and 28±1 x10⁴ in assay [1] (Dosis 10⁻⁸ M). The “Anzahl Zellen (x10⁴): verhornte Plattenepithelzellen” value in assay [1] (Dosis 10⁻¹⁰ M) was determined as 103±6 x10⁴; in assay [1] (Dosis 10⁻⁶ M), 153±1 x10⁴; in assay [1] (Dosis 10⁻⁸ M), 128±3 x10⁴. In addition, in assay [2], the IC50 worked out at 0.003 µM. In addition, the “% Reduktion der Anzahl Zellen” value in assay [2] (setting [9]) is reported as 18%; in assay [2] (setting [4]) it was 20%; in assay [2] (setting [5]) it was 81%; in assay [2] (setting [6]), 85%; in assay [2] (setting [7]) it was 86%. The EC50 in assay [3] worked out at 0.003 µM. For the same molecule, the “Differenzierte Zellen (%)” value is listed as 3% in assay [3] (setting [9]); 19% in assay [3] (setting [4]); 92% in assay [3] (setting [5]); 97% in assay [3] (setting [6]); 99% in assay [3] (setting [7]).
As to `C=C1CC[C@H](O)C/C1=C/C=C1\CCC[C@]2(C)C([C@H](C)C/C=C/C(C)(C)O)=CC[C@@H]12` [Verbindung D, 25-Hydroxy-16,23E-bisdehydrocholecalciferol], the “Anzahl Zellen (x10⁴): Basalzellen” value was 93±6 x10⁴ in assay [1] (Dosis 10⁻¹⁰ M), 68±1 x10⁴ in assay [1] (Dosis 10⁻⁶ M) and 86±3 x10⁴ in assay [1] (Dosis 10⁻⁸ M). Further, the “Anzahl Zellen (x10⁴): Gesamtanzahl” value was 113±7 x10⁴ in assay [1] (Dosis 10⁻¹⁰ M), 94±3 x10⁴ in assay [1] (Dosis 10⁻⁶ M) and 111±7 x10⁴ in assay [1] (Dosis 10⁻⁸ M). The “Anzahl Zellen (x10⁴): Plattenepithelzellen” value is listed as 20±1 x10⁴ in assay [1] (Dosis 10⁻¹⁰ M), 26±2 x10⁴ in assay [1] (Dosis 10⁻⁶ M) and 25±2 x10⁴ in assay [1] (Dosis 10⁻⁸ M). Further, the results for the “Anzahl Zellen (x10⁴): verhornte Plattenepithelzellen” value in assay [1] (Dosis 10⁻¹⁰ M), in assay [1] (Dosis 10⁻⁶ M) and in assay [1] (Dosis 10⁻⁸ M) were 104±10 x10⁴, 144±7 x10⁴ and 128±5 x10⁴, respectively. The IC50 in assay [2] amounted to 1.5 µM. For the same molecule, the “% Reduktion der Anzahl Zellen” value in assay [2] (setting [4]) came out at 12%; in assay [2] (setting [5]), 12%; in assay [2] (setting [6]), 17%; in assay [2] (setting [7]), 46%; in assay [2] (setting [8]), 95%. Moreover, the EC50 in assay [3] worked out at 2 µM. Moreover, the “Differenzierte Zellen (%)” value in assay [3] (setting [4]) is reported as 1%; in assay [3] (setting [5]), 2%; in assay [3] (setting [6]) it was 17%; in assay [3] (setting [7]) it was 31%; in assay [3] (setting [8]), 97%.
Turning to `C=C1CC[C@H](O)C/C1=C/C=C1\CCC[C@]2(C)C([C@H](C)CC#CC(C)(C)O)=CC[C@@H]12` [Verbindung F, 25-Hydroxy-16-dehydro-23-didehydrocholecalciferol], the “Anzahl Zellen (x10⁴): Basalzellen” value in assay [1] (Dosis 10⁻¹⁰ M) was determined as 81±3 x10⁴; in assay [1] (Dosis 10⁻⁶ M), 55±2 x10⁴; in assay [1] (Dosis 10⁻⁸ M), 67±2 x10⁴. For the same molecule, the entries for the “Anzahl Zellen (x10⁴): Gesamtanzahl” value in assay [1] (Dosis 10⁻¹⁰ M), in assay [1] (Dosis 10⁻⁶ M) and in assay [1] (Dosis 10⁻⁸ M) were 103±5 x10⁴, 84±4 x10⁴ and 97±3 x10⁴, respectively. Also, the “Anzahl Zellen (x10⁴): Plattenepithelzellen” value in assay [1] (Dosis 10⁻¹⁰ M) was found to be 22±2 x10⁴; in assay [1] (Dosis 10⁻⁶ M) it was 29±1 x10⁴; in assay [1] (Dosis 10⁻⁸ M), 29±1 x10⁴. The “Anzahl Zellen (x10⁴): verhornte Plattenepithelzellen” value in assay [1] (Dosis 10⁻¹⁰ M) amounted to 103±4 x10⁴; in assay [1] (Dosis 10⁻⁶ M), 137±7 x10⁴; in assay [1] (Dosis 10⁻⁸ M), 121±6 x10⁴. In addition, the IC50 in assay [2] was 0.7 µM. Besides, the “% Reduktion der Anzahl Zellen” value in assay [2] (setting [4]) was found to be 13%; in assay [2] (setting [5]), 10%; in assay [2] (setting [6]), 8%; in assay [2] (setting [7]) it was 58%; in assay [2] (setting [8]), 95%. The EC50 in assay [3] was 0.7 µM. Also, the “Differenzierte Zellen (%)” value in assay [3] (setting [4]) is on record as 4%; in assay [3] (setting [5]), 12%; in assay [3] (setting [6]) it was 21%; in assay [3] (setting [7]), 55%; in assay [3] (setting [8]) it was 91%.
As to `C=C1/C(=C\C=C2/CCC[C@]3(C)[C@@H]([C@H](C)CCCC(C)(C)O)CC[C@@H]23)C[C@@H](O)C[C@@H]1O` [Verbindung X, 1,25-Dihydroxychalecalciferol, reference compound], the “Anzahl Zellen (x10⁴): Basalzellen” value in assay [1] (Dosis 10⁻¹⁰ M) was 103±2 x10⁴ and 95±8 x10⁴ and 86±6 x10⁴; in assay [1] (Dosis 10⁻⁶ M), 64±6 x10⁴ and 57±4 x10⁴ and 51±5 x10⁴; in assay [1] (Dosis 10⁻⁸ M), 89±2 x10⁴ and 75±8 x10⁴ and 61±5 x10⁴. For the same molecule, the “Anzahl Zellen (x10⁴): Gesamtanzahl” value in assay [1] (Dosis 10⁻¹⁰ M) is 122±4 x10⁴ and 116±9 x10⁴ and 106±7 x10⁴; in assay [1] (Dosis 10⁻⁶ M), 95±7 x10⁴ and 83±5 x10⁴ and 73±7 x10⁴; in assay [1] (Dosis 10⁻⁸ M) it was 112±6 x10⁴ and 101±10 x10⁴ and 84±8 x10⁴. Further, the “Anzahl Zellen (x10⁴): Plattenepithelzellen” value is 19±2 x10⁴ and 21±1 x10⁴ and 18±1 x10⁴ in assay [1] (Dosis 10⁻¹⁰ M); 31±1 x10⁴ and 26±1 x10⁴ and 22±2 x10⁴ in assay [1] (Dosis 10⁻⁶ M); 23±4 x10⁴ and 26±2 x10⁴ and 23±3 x10⁴ in assay [1] (Dosis 10⁻⁸ M). Besides, the IC50 in assay [2] amounted to 0.02 µM. The “% Reduktion der Anzahl Zellen” value in assay [2] (setting [9]) worked out at 6%; in assay [2] (setting [4]) it was 5%; in assay [2] (setting [5]), 16%; in assay [2] (setting [6]) it was 66%; in assay [2] (setting [7]), 84%. Besides, the EC50 in assay [3] amounted to 0.02 µM. Further, the “Differenzierte Zellen (%)” value in assay [3] (setting [9]) worked out at 3%; in assay [3] (setting [4]), 11%; in assay [3] (setting [5]) it was 19%; in assay [3] (setting [6]) it was 68%; in assay [3] (setting [7]), 98%.
